# Test results reported in patent US9796704B2, “Substituted quinazolines as receptor-type kinase inhibitors” (Symphony Evolution, Inc., priority 2002, dated 2017).
# pIC50: −log10 of the molar value.
# Legend:
# EGFR = EGFR (Homo sapiens (Human), UniProt P00533); experiment: EGFR kinase inhibition, luciferase-coupled chemiluminescent assay (LCCA); settings: read-out: EGFR IC50
# Procedure: Kinase activity and compound inhibition are investigated using one or more of the three assay formats described below. The ATP concentrations are selected near its Michaelis-Menten constant (KM) for each individual kinase. Dose-response experiments are performed at ten different inhibitor concentrations in a 384-well plate format. […] Typically H is close to unity.
# In the LCCA assays, kinase activity is measured by the ATP consumption that is accurately measured by luciferase-coupled chemiluminescence. Greiner 384-well white clear bottom medium binding plates are used for LCCA. Briefly the kinase reaction is initiated by mixing compounds, ATP and kinases in a 20 μL volume. At the end of the kinase reaction, a 20 μL luciferase-luciferin mix is added and the chemiluminescent signal is read on a Wallac Victor^2 reader.
# EphB4 = EphB4 (Homo sapiens (Human), UniProt P54760); experiment: EphB4 kinase inhibition, 33P phosphoryl transfer assay (radiometric); assay type: biochemical
# Sequence of EphB4 (P54760 605-890): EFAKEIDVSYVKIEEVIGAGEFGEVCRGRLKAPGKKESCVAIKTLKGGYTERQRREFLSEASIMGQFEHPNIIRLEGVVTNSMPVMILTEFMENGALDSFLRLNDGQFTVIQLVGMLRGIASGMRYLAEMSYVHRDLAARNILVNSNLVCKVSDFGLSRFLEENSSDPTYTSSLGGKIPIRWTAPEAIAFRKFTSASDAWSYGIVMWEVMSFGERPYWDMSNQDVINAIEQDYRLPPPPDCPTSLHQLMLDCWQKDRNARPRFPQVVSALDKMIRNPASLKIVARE
# Procedure: Phosphorylated substrate products are quantified by scintillation spectrometry.
# Kinase activity and compound inhibition are investigated using one or more of the three assay formats described below. The ATP concentrations are selected near its Michaelis-Menten constant (KM) for each individual kinase. Dose-response experiments are performed at ten different inhibitor concentrations in a 384-well plate format. […] These parameters are obtained by nonlinear regression algorithm built into ActivityBase software (available from ID Business Solutions Ltd., of Guildford, Surrey, UK). ^33P Phosphoryl Transfer Assay (Radiometric)
# Greiner 384-well white clear bottom high binding plates (available from Greiner Bio-One, Inc., of Longwood, Fla.) are coated with 2 μg/well of protein or peptide substrate in a 50 μL volume overnight at ambient temperature. […] The coating solution is aspirated and the plates are washed once with 50 μL of assay buffer and padded dry. Subsequently compounds and enzymes are mixed with γ ^33P-ATP (3.3 μCi/nmol) in a total volume of 20 uL in suitable assay buffers (see Table 2). For example the final EphB4 reaction solution contains 20 mM TrisHCl, pH 7.5, 10 mM MgCl2, 0.01% Triton X-100, 0.1 mM NaVO3, 5 nM EphB4 enzyme and 5 μM ATP. […] The plates are subsequently washed 6-12 times with PBST or TBS buffer.
# Sequence of EGFR (P00533 672-1210): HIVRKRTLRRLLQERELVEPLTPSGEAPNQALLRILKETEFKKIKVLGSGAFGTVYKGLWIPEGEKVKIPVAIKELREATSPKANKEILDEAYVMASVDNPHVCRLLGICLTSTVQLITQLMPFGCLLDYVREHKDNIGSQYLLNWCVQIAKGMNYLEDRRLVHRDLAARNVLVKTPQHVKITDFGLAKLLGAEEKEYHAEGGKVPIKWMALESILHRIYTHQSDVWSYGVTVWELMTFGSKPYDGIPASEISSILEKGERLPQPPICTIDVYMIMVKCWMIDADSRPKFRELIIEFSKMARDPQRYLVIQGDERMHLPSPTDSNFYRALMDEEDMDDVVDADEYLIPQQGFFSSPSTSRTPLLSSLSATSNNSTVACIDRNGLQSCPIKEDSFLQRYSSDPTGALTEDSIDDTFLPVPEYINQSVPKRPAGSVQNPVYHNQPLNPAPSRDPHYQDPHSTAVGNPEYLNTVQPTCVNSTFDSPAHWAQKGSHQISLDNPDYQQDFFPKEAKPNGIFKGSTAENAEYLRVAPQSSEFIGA
pIC50 (EGFR),pIC50 (EphB4),SMILES
> 7.30,> 7.30,"COc1cc(OC)c(Nc2ncnc3cc(O[C@@H]4CO[C@@H]5[C@H]4OC[C@H]5F)c(OC)cc23)cc1Cl [Example 135, 1,4:3,6-dianhydro-5-O-[4-{[5-chloro-2,4-bis(methyloxy)phenyl]amino}-6-(methyloxy)quinazolin-7-yl]-2-deoxy-2-fluoro-D-iditol]"
> 7.30,6.00 to 7.30,"COc1cc2c(Nc3ccc(Cl)c(Cl)c3)ncnc2cc1OCc1noc(C2CCCN(C)C2)n1 (centres unmarked) [Example 156, N-(3,4-dichlorophenyl)-6-(methyloxy)-7-({[5-(1-methylpiperidin-3-yl)-1,2,4-oxadiazol-3-yl]methyl}oxy)quinazolin-4-amine]"
> 7.30,6.00 to 7.30,"COc1cc2c(Nc3ccc(Cl)c(Cl)c3)ncnc2cc1OCc1noc(C2CCN(C)CC2)n1 [Example 142, N-(3,4-dichlorophenyl)-6-(methyloxy)-7-({[5-(1-methylpiperidin-4-yl)-1,2,4-oxadiazol-3-yl]methyl}oxy)quinazolin-4-amine]"
> 7.30,> 7.30,"COc1cc2c(Nc3ccc(F)c(Cl)c3F)ncnc2cc1O[C@@H]1CO[C@@H]2[C@H]1OC[C@H]2F [Example 137, 1,4:3,6-dianhydro-5-O-[4-[(3-chloro-2,4-difluorophenyl)amino]-6-(methyloxy)quinazolin-7-yl]-2-deoxy-2-fluoro-D-iditol]"
> 7.30,> 7.30,"COc1cc2c(Nc3ccc(Br)c(Cl)c3Cl)ncnc2cc1O[C@@H]1CO[C@@H]2[C@H]1OC[C@H]2F [Example 103, 1,4:3,6-dianhydro-5-O-[4-[(4-bromo-2,3-dichlorophenyl)amino]-6-(methyloxy)quinazolin-7-yl]-2-deoxy-2-fluoro-D-iditol]"
> 7.30,6.00 to 7.30,"COc1cc2c(Nc3ccc(Cl)c(Cl)c3)ncnc2cc1OCC1CN(C2CCCC2)CCO1 (centres unmarked) [Example 269, 7-{[(4-cyclopentylmorpholin-2-yl)methyl]oxy}-N-(3,4-dichlorophenyl)-6-(methyloxy)quinazolin-4-amine]"
> 7.30,6.00 to 7.30,"COc1cc2c(Nc3ccc(Cl)c(Cl)c3)ncnc2cc1OCc1noc(C2CCCCN2)n1 (centres unmarked) [Example 145, N-(3,4-dichlorophenyl)-6-(methyloxy)-7-{[(5-piperidin-2-yl-1,2,4-oxadiazol-3-yl)methyl]oxy}quinazolin-4-amine]"
> 7.30,> 7.30,"COc1cc2c(Nc3ccc(Cl)c(Cl)c3)ncnc2cc1OCc1c(F)cccc1F [Example 233, N-(3,4-dichlorophenyl)-7-{[(2,6-difluorophenyl)methyl]oxy}-6-(methyloxy)quinazolin-4-amine]"
> 7.30,> 7.30,"COc1cc2c(Nc3ccc(Br)c(Cl)c3)ncnc2cc1O[C@H]1CO[C@@H]2C3OC(C)(C)O[C@H]3O[C@H]12 (stereo partly drawn) [Example 80, 3,6-anhydro-5-O-[4-[(4-bromo-3-chlorophenyl)amino]-6-(methyloxy)quinazolin-7-yl]-1,2-O-(1-methylethylidene)-beta-L-xylo-hexofuranose]"
> 7.30,6.00 to 7.30,"COc1cc2c(Nc3ccc(Cl)c(Cl)c3)ncnc2cc1OCC1CN(Cc2ccccc2)CCO1 (centres unmarked) [Example 147, N-(3,4-dichlorophenyl)-6-(methyloxy)-7-({[4-(phenylmethyl)morpholin-2-yl]methyl}oxy)quinazolin-4-amine]"
> 7.30,> 7.30,"COc1cc2c(Nc3cc(Cl)c(Cl)cc3F)ncnc2cc1O[C@@H]1CO[C@@H]2[C@H]1OC[C@H]2F [Example 105, 1,4:3,6-dianhydro-2-deoxy-5-O-[4-[(4,5-dichloro-2-fluorophenyl)amino]-6-(methyloxy)quinazolin-7-yl]-2-fluoro-D-iditol]"
> 7.30,–,"COc1cc2c(Nc3ccc(Cl)c(Cl)c3)ncnc2cc1OCc1noc(COCc2ccccc2)n1 [Example 211, N-(3,4-dichlorophenyl)-6-(methyloxy)-7-{[(5-{[(phenylmethyl)oxy]methyl}-1,2,4-oxadiazol-3-yl)methyl]oxy}quinazolin-4-amine]"
